Laboratory results: US12485132B2, “GPX4 inhibitors and senolytic compounds and uses thereof” (Rubedo Life Sciences, Inc., priority 2023, dated 2025)
pIC50: −log10 of the molar value.

Experiments:
Format in all cases: cell-based
[1] = tested on: senescent normal human dermal fibroblasts; experiment: Rescue of compound-induced cell death by ferrostatin-1 in senescent fibroblasts; conditions: compounds at 1.11 μM, ferrostatin-1 at 0.375 and 6 μM; 24 hours; CellTiter-Glo
From the text: Cell death induced by ferroptosis-inducing agents can be characterized by rescuing the cellular response with radical trapping agents that prevent the accumulation of phospholipid hydroperoxides (Stockwell et al., Cell Chem Biol 2020 27 (4): 365-375). As such, ferrostatin-1 was identified as a potent inhibitor of ferroptosis for which a free radical trapping mechanism had been reported (Skouta et al., J Am Chem Soc 2014 136 (12): 4551-6; Zika et al., ACS Cent Sci. 2017 3 (3): 232-243; and Miotto et al., Redox Biol. 2020; 101328). To determine whether compounds 18 and 32 induce ferroptosis in senescent cells, normal human dermal fibroblasts were induced to undergo senescence by treatment with a sublethal concentration of chemotherapy (bleomycin sulfate), followed by a rest period without chemotherapy similarly to previous reports (Aoshiba et al., 2003 3:436-43). Cells were maintained in DMEM media (high glucose, 4 mM L-glutamine, no sodium pyruvate) supplemented with 10% heat-inactivated fetal bovine serum in a humidified incubator at 37° C. with 5% carbon dioxide and 5% oxygen. Cellular senescence was qualified by reduced EdU (5-ethynyl-2′-deoxyuridine) incorporation and increased SA-β-Gal (senescence-associated beta-galactosidase) staining compared to proliferating untreated cells. Senescent fibroblasts were plated into 96-well plates at a density of 10,000 cells per well. The next day, ferrostatin-1 was diluted in cell medium to reach a final concentration of 0.375 and 6 μM and was added to cells. Approximately 30 minutes after the addition of ferrostatin-1, compounds 18 and 32 at 1.11 μM, or the peptidyl transfer inhibitor puromycin at 10 μM were added to cells. Cells were incubated with the compounds for 24 hours, at which point viability was quantified using the CellTiter-Glo assay (Promega). The viability for treated cells was determined relative to untreated control cells.

GPX4 = target: T1, GPX4 (Homo sapiens, UniProt P36969); experiment: Competitive binding to GPX4 in A549 cells with biotinylated analog, streptavidin pull-down; design: host or cells: A549; conditions: 2 μM for 2 hours before 2 μM compound 21 for 5 hours
T1 sequence (P36969 1-197): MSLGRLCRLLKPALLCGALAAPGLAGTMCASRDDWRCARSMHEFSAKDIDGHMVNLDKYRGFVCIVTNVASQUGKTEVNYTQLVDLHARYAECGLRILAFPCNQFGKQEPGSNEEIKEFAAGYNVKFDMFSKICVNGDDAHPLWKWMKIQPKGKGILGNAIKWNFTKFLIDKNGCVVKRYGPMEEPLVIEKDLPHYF
Protocol: Binding of compounds 32 and 69 to the target protein GPX4 in cultured cells can be assessed by the use of biotinylated analogs such as compound 21 that retain their cellular activities. Cells or tissue simultaneously or sequentially exposed to compounds 32 and 69 and biotinylated analog 21 can be analyzed for exogenous biotinylated proteins and thereby enables the identification of cellular targets of compounds 32 and 69. The A549 cancer cell line (ATCC) was exposed to 2 μM of compounds 32 and 69 for 2 hours followed by the addition of 2 μM of compound 21 for 5 hours. Cells were collected and lysed by IGEPAL CA-630 and sodium dodecyl sulfate (SDS) in the presence of a protease inhibitor cocktail (4693132001, Roche). The soluble protein fraction was isolated and incubated with Streptavidin Mag Sepharose (28-9857-38, Cytiva) at 4° C. for 16 hours. The streptavidin-unbound fraction was collected allowing for the quantification of the proportion of GPX4 depleted by the biotinylated compound 21 relative to samples not treated with Streptavidin Mag Sepharose. Furthermore, biotinylated proteins were eluted from Streptavidin Mag Sepharose by head-denaturation in the presence of excess biotin (5 mM). […] Chemiluminescent following HRP substrate addition (34580, ThermoFisher) was detected by the ChemiDoc XRS+ System (Bio-Rad). […]

senescent HEPG2 cells = experiment: Senescence assay: viability of senescent HEPG2 cells; conditions: Homo sapiens, 24-72 hours incubation, viability by CellTiter-Glo or XTT, read-out: Absolute IC50 average HEPG2_SEN IC50
Outline: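 A549 and HEPG2 cells made senescent by sublethal chemotherapy (bleomycin, gemcitabine, doxorubicin or 5-fluorouridine) plus recovery, verified by low EdU and high SA-β-Gal. Ten-point duplicate dosing for 24-72 h; viability by CellTiter-Glo or XTT versus untreated cells; absolute IC50 from four-parameter Hill fit.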

senescent A549 cells = experiment: Senescence assay: viability of senescent A549 cells; conditions: Homo sapiens, 24-72 hours incubation, viability by CellTiter-Glo or XTT, read-out: Absolute IC50 average A549_SEN IC50
Protocol: Cells were maintained in DMEM media (high glucose, 4 mM L-glutamine, no sodium pyruvate) supplemented with 10% fetal bovine serum in a humidified incubator at 37° C. with 5% carbon dioxide. Senescence was induced via treatment with a sublethal concentration of chemotherapy (bleomycin, gemcitabine, doxorubicin, 5-fluorouridine), followed by a rest period without chemotherapy similarly to what is reported by others in the field (e.g., Aoshiba et al., 2003 Eur Respir J 22:436-443). Senescence was qualified by low EdU (5-ethynyl-2′-deoxyuridine) incorporation and high SA-β-Gal (senescence-associated beta-galactosidase) staining compared to proliferating untreated cells. Senescent cells were plated into 96-well plates at a density of 5-15,000 cells/well. The next day, compounds were added in duplicate across ten different concentrations spanning roughly four Log10 units. Cells were incubated with the compounds for 24-72 hours, at which point viability was quantified using CellTiter-Glo (Promega) or XTT (R&D Systems). The viability for treated cells was determined relative to untreated control cells. The log of the compound concentration vs. normalized mean viability was fit to a four parameters Hill function with variable slope. The bottom was constrained to be greater than zero. The X mean value for Y=50 was interpolated to determine the absolute IC50. The results in Table 2 indicate that many of the compounds are active in cells and can induce a dose dependent decrease in the viability of senescent HEPG2 and A549 cells.

| pIC50 (senescent HEPG2 cells) | pIC50 (senescent A549 cells) | SMILES | inhibition by ferrostatin-1 of compound-induced cell death [1] | effect of pre-treatment on compound 21 dependent depletion of GPX4 protein (GPX4) |
| --- | --- | --- | --- | --- |
|  |  | CCOC(=O)c1ccc(NC2CCCCC2)c(N)c1 [ferrostatin-1, reference compound] | potently inhibits cell death |  |
|  |  | C#CC(F)(F)[C@]1(O)CC[C@H]2[C@@H]3CCC4=C/C(=N/NC(=O)NC5CC5)CCC4=C3[C@@H](c3ccc(C4CC4)cc3)C[C@@]21C [Compound 69, (E)-N-cyclopropyl-2-((8S,11R,13S,14S,17S)-11-(4-cyclopropylphenyl)-17-(1,1-difluoroprop-2-yn-1-yl)-17-hydroxy-13-methyl-1,2,6,7,8,11,12,13,14,15,16,17-dodecahydro-3H-cyclopenta[a]phenanthren-3-ylidene)hydrazine-1-carboxamide] |  | reduces the compound 21 dependent depletion of GPX4 protein |
| 8.00 to 10.00 | 7.00 to 8.00 | C#CC(F)(F)[C@]1(O)CC[C@H]2[C@@H]3CCC4=CC(=NOCCO)CCC4=C3[C@@H](c3ccc(C4CC4)cc3)C[C@@]21C [Compound 18, (8S,11R,13S,14S,17S)-11-(4-cyclopropylphenyl)-17-(1,1-difluoroprop-2-yn-1-yl)-17-hydroxy-13-methyl-1,2,6,7,8,11,12,13,14,15,16,17-dodecahydro-3H-cyclopenta[a]phenanthren-3-one O-(2-hydroxyethyl)oxime] | potently inhibits cell death induced by compounds 18 and 32 |  |
